This note sets out measurements from patent US20040024024A1, “Aromatic sulfone hydroxamates and their use as protease inhibitors” (priority 2001, published 2004).

In one test the target is T1, Human recombinant MMP-2 (Homo sapiens, UniProt P08253).
T1 construct: made in house; host or cells: MMP-2-transfected p2AHT2 cells
T1 sequence (P08253 110-660): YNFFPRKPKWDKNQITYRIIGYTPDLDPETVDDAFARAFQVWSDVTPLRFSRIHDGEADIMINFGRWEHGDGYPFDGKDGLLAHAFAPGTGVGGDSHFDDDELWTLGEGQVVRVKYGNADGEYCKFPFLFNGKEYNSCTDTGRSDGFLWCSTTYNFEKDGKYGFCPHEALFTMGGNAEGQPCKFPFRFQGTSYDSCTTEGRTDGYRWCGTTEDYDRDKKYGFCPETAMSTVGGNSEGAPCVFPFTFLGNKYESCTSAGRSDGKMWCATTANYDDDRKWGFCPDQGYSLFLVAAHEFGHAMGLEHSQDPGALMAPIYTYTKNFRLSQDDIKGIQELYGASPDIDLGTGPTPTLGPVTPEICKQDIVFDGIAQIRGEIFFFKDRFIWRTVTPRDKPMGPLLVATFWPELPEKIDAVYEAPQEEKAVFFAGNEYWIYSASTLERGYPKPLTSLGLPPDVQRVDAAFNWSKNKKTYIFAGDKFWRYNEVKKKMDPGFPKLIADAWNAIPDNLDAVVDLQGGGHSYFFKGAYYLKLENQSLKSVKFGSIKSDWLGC
In words: In vitro MMP inhibition, Ki determination (fluorogenic substrate II). The format is biochemical. As for the experimental part: (§1) Several hydroxamates and salts thereof were analyzed in in vitro assays to determine their ability to inhibit the MMP cleavage of peptide substrates. Inhibition (Ki) and IC50 constants were calculated from the assayed hydroxamate-MMP interactions.
(§2) Human recombinant MMP-1, MMP-2, MMP-9, MMP-13, and MMP-14 were used in this assay. All enzymes were prepared in Assignee's laboratories following usual laboratory procedures. Protocols for the preparation and use of these enzymes are available in the scientific literature. See, e.g., Enzyme Nomenclature (Academic Press, San Diego, Calif., 1992) (and the citations therein). See also, Frije et al., J. Biol. Chem., 26(24), 16766-73 (1994).
The MMP-2 proenzyme was purified by gelatin Sepharose chromatography from MMP-2-transfected p2AHT2 cells provided by Dr. Gregory Goldberg of Washington University (St. Louis, Mo.).
(§3) All MMPs were activated using 4-aminophenylmercuric acetate (“APMA”, Sigma Chemical, St. Louis, Mo.) or trypsin. MMP-9 also was activated using human recombinant MMP-3 (purified in Assignee's laboratory following standard cloning and purification techniques).
(§4) Two fluorogenic, methoxycoumarin-containing polypeptide substrates were used in the MMP inhibition assays:
(§5) MCA-ArgProLeuGlyLeuDpaAlaArgGluArgNH2 (II)
(§6) Here, “Dpa” is 3-(2,4-dinitrophenyl)-L-2,3-diaminopropionyl group, and “MCA” is 7-methoxycoumarin-4-yl acetyl. Substrate (I) was purchased from Baychem (Redwood City, Calif.), and substrate II was prepared Assignee's laboratory. Substrate I was used in the IC50 determination assays, while substrate II was used in the Ki determination assays. In the absence of MMP inhibitory activity, either substrate is cleaved at the Gly-Leu peptide bond. This cleavage separates the highly fluorogenic peptide from the 2,4-dinitrophenyl quencher, thus resulting in increase of fluorescent intensity.
(§7) The stock solutions of the assayed hydroxamates (or salts thereof) were prepared in 1% dimethyl sulfoxide (DMSO). These stock solutions were diluted in Buffer A (100 mM Tris-HCl, 100 mM NaCl, 10 mM CaCl2, 0.05% polyoxyethylene 23 lauryl ether, pH 7.5) to obtain solutions with different hydroxamate concentrations, i.e., assay solutions with different concentrations of the assayed MMP inhibitory compound. The experiment controls contained the same amount of Buffer A/DMSO as the assayed sample, but contained no hydroxamate (or salt thereof).
The assays from which the Ki determinations were made were performed as follows. The assayed hydroxamate samples were incubated in separate wells of untreated white polystyrene plates (Nunc Nalgene International, Rochester, N.Y.), and analyzed on a Tecan SpectraFlour Plus plate reader. The excitation wavelength was 330 nm, and the emission wavelength—420 nm. All samples (assayed hydroxamates and controls) were incubated in separate plate wells at room temperature for 1 hr in the presence of 4 μM of MMP substrate (II). In the absence of MMP inhibitory activity, substrate II was cleaved at the Gly-Leu bond resulting in an increase of relative fluorescence. Inhibition was observed as a reduced rate of this increase in relative fluorescence. The various hydroxamates were analyzed using a single low enzyme concentration with a single substrate concentration fixed at or below the Km. This protocol is a modification of method by Knight et al., FEBS Lett., 296(3), 263-266 (1992). Apparent inhibitory constants were determined by non-linear regression of reaction velocity as a function of inhibitor and enzyme concentration using Morrison's equation, as described by Kuzmic, Anal. Biochem. 286, 45-50 (2000). […] Since the substrate concentration was chosen to be at or below the Km, the apparent Ki's from this analysis were reported as Ki's without correction for the influence of substrate.

A further test deals with T2, Human recombinant MMP-13 (Homo sapiens, UniProt P45452).
T2 construct: made in house; host or cells: baculovirus / insect cells
The test is described as above. It counts as biochemical. On the procedure: as §1, §2
The expressed proenzyme was first purified over a heparin agarose column, and then over a chelating zinc chloride column. The proenzyme was then activated by APMA for use in the assay. Further details on baculovirus expression systems may be found in, for example, Luckow et al., J. Virol., 67, 4566-79 (1993). See also, O'Reilly et al, Baculovirus Expression Vectors: A Laboratory Manual (W. H. Freeman and Co., New York, N.Y., 1992). See also, King et al., The Baculovirus Expression System: A Laboratory Guide (Chapman & Hall, London, England, 1992).
as §3, §4, §5, §6, §7
The assays from which the Ki determinations were made were performed as follows. The assayed hydroxamate samples were incubated in separate wells of untreated white polystyrene plates (Nunc Nalgene International, Rochester, N.Y.), and analyzed on a Tecan SpectraFlour Plus plate reader. The excitation wavelength was 330 nm, and the emission wavelength—420 nm. All samples (assayed hydroxamates and controls) were incubated in separate plate wells at room temperature for 1 hr in the presence of 4 μM of MMP substrate (II). In the absence of MMP inhibitory activity, substrate II was cleaved at the Gly-Leu bond resulting in an increase of relative fluorescence. Inhibition was observed as a reduced rate of this increase in relative fluorescence. The various hydroxamates were analyzed using a single low enzyme concentration with a single substrate concentration fixed at or below the Km. This protocol is a modification of method by Knight et al., FEBS Lett., 296(3), 263-266 (1992). Apparent inhibitory constants were determined by non-linear regression of reaction velocity as a function of inhibitor and enzyme concentration using Morrison's equation, as described by Kuzmic, Anal. Biochem. 286, 45-50 (2000). […]

Turning to `Cc1cc(OC(F)(F)F)ccc1NC(=O)CCCOc1ccc(S(=O)(=O)C2(C(=O)NO)CCOCC2)cc1` [Example 229], the Ki came out at 10.4 nM at Human recombinant MMP-2 (value in parenthesis) and 0.27 nM on Human recombinant MMP-13 (value in parenthesis).
Take `COc1ccc(/C(C#N)=C/CCCOc2ccc(S(=O)(=O)C3(C(=O)NO)CCN(C4CC4)CC3)cc2)cc1` [Example 233]: the Ki on Human recombinant MMP-2 (value in parenthesis) was found to be 60.2 nM; at Human recombinant MMP-13 (value in parenthesis), 0.137 nM.
Regarding `CN(C(=O)CCCOc1ccc(S(=O)(=O)C2(C(=O)NO)CCOCC2)cc1)c1ccc(OC(F)(F)F)cc1` [Example 249], the results for the inhibition constant Ki at Human recombinant MMP-2 (value in parenthesis) and on Human recombinant MMP-13 (value in parenthesis) were 333 nM and 1.49 nM, respectively.
For `O=C(CCCOc1ccc(S(=O)(=O)C2(C(=O)NO)CCOCC2)cc1)Nc1ccc(OC(F)(F)F)cc1` [Example 250], in that order: 3.12 nM and 0.127 nM.
For `Cc1cc(NC(=O)CCCOc2ccc(S(=O)(=O)C3(C(=O)NO)CCOCC3)cc2)ccc1OC(C)C` [Example 290], in that order: 1010 nM and 0.547 nM.
Regarding `O=C(NO)C1(S(=O)(=O)c2ccc(OCCCc3cncc(-c4ccc(F)cc4)c3)cc2)CCOCC1` [Example 523], the inhibition constant Ki on Human recombinant MMP-2 (value in parentheses) was 197 nM; on Human recombinant MMP-13 (value in parentheses) it was 0.234 nM.
For `O=C(NO)C1(S(=O)(=O)c2ccc(OCCCc3cncc(-c4ccccc4)c3)cc2)CCOCC1` [Example 524], in that order: 51.8 nM and 0.244 nM.
For `O=C(COc1ccc(S(=O)(=O)C2(C(=O)NO)CCOCC2)cc1)c1cccc(-c2ccccc2)c1` [Example 563], in that order: 70.1 nM and 0.7 nM.
For `O=C(CCCOc1ccc(S(=O)(=O)C2(C(=O)NO)CCOCC2)cc1)Nc1cccc(I)c1` [Example 570], in that order: 10.1 nM and 0.142 nM.
As for `O=C(NO)C1(S(=O)(=O)c2ccc(OCCCc3cccc(-n4ccnc4)c3)cc2)CCOCC1` [Example 574], the inhibitory constant (Ki) at Human recombinant MMP-2 (value in parentheses) stood at 112 nM; on Human recombinant MMP-13 (value in parentheses) it was 1.32 nM.
For `O=C(NO)C1(S(=O)(=O)c2ccc(OCCCc3nc(-c4cccnc4)no3)cc2)CCOCC1` [Example 578], in that order: 72.1 nM and 1.72 nM.
For `O=C(NO)C1(S(=O)(=O)c2ccc(OCCCc3nc(-c4ccccc4)no3)cc2)CCOCC1` [Example 584], in that order: 20.8 nM and 0.944 nM.
As for `O=C(NO)C1(S(=O)(=O)c2ccc(OCCCc3cc(-c4ccc(F)cc4F)cs3)cc2)CCOCC1` [Example 587], the values for the Ki on Human recombinant MMP-2 (value in parentheses) and at Human recombinant MMP-13 (value in parentheses) were 125 nM and 1.42 nM, respectively.
Take `O=C(NO)C1(S(=O)(=O)c2ccc(OCCCc3cccc(-c4cccs4)c3)cc2)CCOCC1` [Example 595]: the inhibitory constant (Ki) at Human recombinant MMP-2 (value in parentheses) amounted to 586 nM; on Human recombinant MMP-13 (value in parentheses), 7.25 nM.
For `O=C(Cc1csc2ccccc12)NCCOc1ccc(S(=O)(=O)C2(C(=O)NO)CCOCC2)cc1` [Example 596], in that order: 11.2 nM and 0.398 nM.
For `O=C(NCCOc1ccc(S(=O)(=O)C2(C(=O)NO)CCOCC2)cc1)c1cc2ccccc2[nH]1` [Example 599], in that order: 0.38 nM and 0.24 nM.
With `O=C(NO)C1(S(=O)(=O)c2ccc(OCCCc3cc(-c4ccc(OC(F)(F)F)cc4)cs3)cc2)CCOCC1` [Example 608], the Ki was determined as 724 nM at Human recombinant MMP-2 (value in parentheses) and 9.34 nM on Human recombinant MMP-13 (value in parentheses).
For `N#Cc1ccc(-c2cccc(CCCOc3ccc(S(=O)(=O)C4(C(=O)NO)CCOCC4)cc3)c2)cc1` [Example 624], in that order: 623 nM and 0.9 nM.
For `O=C(NO)C1(S(=O)(=O)c2ccc(OCCCc3cccc(-c4ccc(C(F)(F)F)cc4)c3)cc2)CCOCC1` [Example 625], in that order: 6860 nM and 43.6 nM.
On to `O=C(NO)C1(S(=O)(=O)c2ccc(OCCCc3cccc(-c4ccc([N+](=O)[O-])cc4)c3)cc2)CCOCC1` [Example 626], for which the results for the Ki at Human recombinant MMP-2 (value in parentheses) and at Human recombinant MMP-13 (value in parentheses) were 645 nM and 7.5 nM, respectively.
For `O=C(NO)C1(S(=O)(=O)c2ccc(OCCCc3cccc(-c4ccc5c(c4)OCCO5)c3)cc2)CCOCC1` [Example 627], in that order: 3950 nM and 40.9 nM.
For `O=C(NO)C1(S(=O)(=O)c2ccc(OCCCc3cccc(-c4ccc5c(c4)OCO5)c3)cc2)CCOCC1` [Example 628], in that order: 2750 nM and 19.8 nM.
For `O=C(NO)C1(S(=O)(=O)c2ccc(OCCCc3cccc(-c4ccc5ccccc5c4)c3)cc2)CCOCC1` [Example 629], in that order: 1020 nM and 89.1 nM.
For `O=C(NO)C1(S(=O)(=O)c2ccc(OCCCc3cccc(-c4ccc(F)cc4F)c3)cc2)CCOCC1` [Example 630], the figures for the Ki on Human recombinant MMP-2 (value in parentheses) and at Human recombinant MMP-13 (value in parentheses) were 2070 nM and 6.02 nM, respectively.
For `O=C(NO)C1(S(=O)(=O)c2ccc(OCCCc3cccc(-c4csc5ccccc45)c3)cc2)CCOCC1` [Example 631], in that order: 4960 nM and 57.6 nM.
For `O=C(NO)C1(S(=O)(=O)c2ccc(OCCCc3cccc(-c4ccsc4)c3)cc2)CCOCC1` [Example 632], in that order: 279 nM and 6.54 nM.
For `O=C(NO)C1(S(=O)(=O)c2ccc(OCCCc3cccc(-c4cc5ccccc5s4)c3)cc2)CCOCC1` [Example 633], in that order: 4580 nM and 92.4 nM.
For the compound `O=C(NO)C1(S(=O)(=O)c2ccc(OCCCc3cccc(-c4coc5ccccc45)c3)cc2)CCOCC1` [Example 634], the inhibition constant Ki at Human recombinant MMP-2 (value in parentheses) was found to be 983 nM; on Human recombinant MMP-13 (value in parentheses), 19.4 nM.
For `C=Cc1ccc(-c2cccc(CCCOc3ccc(S(=O)(=O)C4(C(=O)NO)CCOCC4)cc3)c2)cc1` [Example 635], in that order: 4680 nM and 26.2 nM.

What is called Ki is the equilibrium dissociation constant of an inhibitor or competing ligand from its target.
